The values below come from PubChem BioAssay (NCI).

Test systems include A498 renal; CAKI-1 renal; COLO 205 colon; EKVX NSCLC; IGROV1 ovarian; MCF7 breast; MDA-MB-435; NCI-H226 lung; PC-3 prostate; SW-620 colon.
Test in all cases: inhibition of tumour cell growth, NCI panel, 48 h

Where “and” joins values, the source holds several entries; their conditions need not be identical. Equal values may be shown once.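 Following 48 hours of exposure in 96-well plates, responses at five concentrations were used to interpolate endpoints linearly. GI50: concentration for 50% inhibition of growth. TGI marks complete inhibition of growth.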

`Cc1cn2c(/C=N/N=C(N)N)c(-c3ccccn3)nc2s1`: the GI50 in the assay on A498 renal was 17.8 µM; in the assay on CAKI-1 renal it was 20.8 µM; with COLO 205 colon it was 11.3 µM; with EKVX NSCLC, 8.37 µM; in the assay on IGROV1 ovarian, 16 µM; in the assay with MCF7 breast, 10.2 µM. Moreover, the GI50 with MDA-MB-435 is 19 µM; in the assay on NCI-H226 lung, 25.1 µM; in the assay on PC-3 prostate it was 15.6 µM; in the assay with SW-620 colon, 7.61 µM. Moreover, the TGI in the assay with A498 renal is 34 µM; in the assay on CAKI-1 renal it was 41.7 µM; with COLO 205 colon, 42 µM; in the assay with EKVX NSCLC, 25.8 µM; with IGROV1 ovarian, greater than 100 µM; in the assay on MCF7 breast it was greater than 68.2 µM. The TGI was 41.6 µM with MDA-MB-435, greater than 58.2 µM in the assay on NCI-H226 lung, 53.9 µM with PC-3 prostate and 25 µM with SW-620 colon.

Take `C=C(CO)[C@@H]1CC[C@]2(COC3CCCCO3)CC[C@]3(C)[C@H](CC[C@@H]4[C@@]5(C)C=C(C=O)C(=O)C(C)(C)[C@@H]5CC[C@]43C)[C@@H]12` (some centres not stated): the GI50 in the assay with A498 renal was 0.234 µM; in the assay with CAKI-1 renal, 0.245 µM; with COLO 205 colon, 0.273 µM; in the assay with EKVX NSCLC it was 0.259 µM; in the assay on IGROV1 ovarian it was 0.231 µM; in the assay with MCF7 breast, 0.479 µM. For the same compound, the GI50 is 0.214 µM in the assay with MDA-MB-435, 0.538 µM in the assay on NCI-H226 lung, 0.237 µM in the assay on PC-3 prostate and 0.267 µM with SW-620 colon. Moreover, the TGI amounted to 0.938 µM in the assay with A498 renal; 0.7 µM in the assay on CAKI-1 renal; 0.833 µM with COLO 205 colon; 0.856 µM in the assay with EKVX NSCLC; 0.515 µM in the assay on IGROV1 ovarian; 1.97 µM with MCF7 breast. Further, the TGI in the assay with MDA-MB-435 was found to be 0.494 µM; in the assay on NCI-H226 lung, 1.47 µM; in the assay with PC-3 prostate, 0.973 µM; with SW-620 colon it was 0.832 µM.

As for `CN1CCN(c2ccc(NC(=O)c3cncnc3Nc3ccc(OCc4ccccn4)c(Cl)c3)cc2)CC1`, the GI50 is 1.48 µM in the assay on A498 renal; 4.78 µM in the assay with CAKI-1 renal; 1.41 µM with COLO 205 colon; 6.25 µM with EKVX NSCLC; 3.13 µM in the assay on IGROV1 ovarian; 2.8 µM in the assay on MCF7 breast. In addition, the GI50 was 0.605 µM in the assay with MDA-MB-435, 5.42 µM with NCI-H226 lung, 3.8 µM in the assay with PC-3 prostate and 1.14 µM with SW-620 colon. The TGI is 6.98 µM in the assay with A498 renal; 11.7 µM in the assay on CAKI-1 renal; 6.19 µM in the assay with COLO 205 colon; 14.6 µM in the assay on EKVX NSCLC; 9.18 µM in the assay with IGROV1 ovarian; 8.53 µM in the assay on MCF7 breast. In addition, the TGI in the assay with MDA-MB-435 was found to be 1.14 µM; in the assay with NCI-H226 lung it was 13 µM; in the assay with PC-3 prostate, 12 µM; with SW-620 colon it was 4.63 µM.

With `N#Cc1c(N)nc(N2CCOCC2)c(C#N)c1-c1ccccn1`, the GI50 with A498 renal was greater than 100 µM; with CAKI-1 renal it was greater than 100 µM; in the assay with COLO 205 colon, greater than 100 µM; with EKVX NSCLC, greater than 100 µM; in the assay on IGROV1 ovarian, greater than 52.3 µM; in the assay on MCF7 breast it was greater than 100 µM. Moreover, the GI50 in the assay with MDA-MB-435, in the assay with PC-3 prostate and in the assay on SW-620 colon was greater than 100 µM each time. Further, the TGI in the assay with A498 renal, with CAKI-1 renal, in the assay with COLO 205 colon, in the assay on EKVX NSCLC, with IGROV1 ovarian and with MCF7 breast was greater than 100 µM throughout. Also, the TGI with MDA-MB-435, in the assay with NCI-H226 lung, with PC-3 prostate and in the assay with SW-620 colon was greater than 100 µM each time.

With `CCN(CC)C(=S)SCN1C(=O)c2ccccc2S1(=O)=O`, the GI50 was 42.9 µM in the assay on A498 renal; greater than 70.5 µM in the assay on CAKI-1 renal; 33.2 µM in the assay on COLO 205 colon; greater than 100 µM in the assay with EKVX NSCLC; 55.2 µM in the assay on IGROV1 ovarian; 0.562 µM in the assay on MCF7 breast. Besides, the GI50 in the assay with MDA-MB-435 is 60.9 µM; in the assay on NCI-H226 lung it was 65.5 µM; with PC-3 prostate, 4.9 µM; with SW-620 colon, 43 µM. Moreover, the TGI with A498 renal, in the assay on CAKI-1 renal, in the assay with COLO 205 colon, in the assay on EKVX NSCLC, with IGROV1 ovarian and with MCF7 breast was greater than 100 µM in each case. Also, the TGI in the assay with MDA-MB-435, in the assay on NCI-H226 lung, with PC-3 prostate and in the assay with SW-620 colon was greater than 100 µM in each case.

On to `COC(=O)c1cc2c3ccccc3[nH]c2c2sccc12`, for which the GI50 in the assay with A498 renal is 21 µM; in the assay with CAKI-1 renal, 13.7 µM; in the assay on COLO 205 colon, 17 µM; with EKVX NSCLC it was 4.12 µM; in the assay on IGROV1 ovarian, 4.31 µM; in the assay on MCF7 breast, 27 µM. Also, the GI50 is 20.3 µM in the assay on MDA-MB-435, 68 µM with NCI-H226 lung, 22.1 µM in the assay on PC-3 prostate and 35.1 µM in the assay with SW-620 colon. The TGI in the assay on A498 renal is 50.6 µM; with CAKI-1 renal it was 98.3 µM; in the assay on COLO 205 colon, 41.8 µM; in the assay on EKVX NSCLC, greater than 100 µM; with IGROV1 ovarian it was greater than 100 µM; in the assay with MCF7 breast, greater than 100 µM. Besides, the TGI in the assay on MDA-MB-435, in the assay on NCI-H226 lung, in the assay on PC-3 prostate and in the assay with SW-620 colon was greater than 100 µM in each case.

Take `C/C(=N\NC(=S)SCc1ccccc1)c1ccccn1`: the TGI was 8.73 µM in the assay with A498 renal; 4.93 µM with CAKI-1 renal; 0.464 µM in the assay with COLO 205 colon; less than 0.01 µM in the assay on EKVX NSCLC; 30.2 µM in the assay with IGROV1 ovarian; less than 0.01 µM in the assay on MCF7 breast. The TGI with MDA-MB-435 came to 18.3 µM; in the assay on NCI-H226 lung, 1.62 µM; with PC-3 prostate, 15.2 µM; in the assay on SW-620 colon, 9.86 µM.

Turning to `Cc1ccc(NS(=O)(=O)c2cccc(C#N)c2)c2[nH]cc(C#N)c12`, the TGI is 5.32 µM and 51.2 µM in the assay on A498 renal; greater than 96.8 µM in the assay with CAKI-1 renal; 53.7 µM and 37.3 µM in the assay with COLO 205 colon; 80.9 µM in the assay on EKVX NSCLC; greater than 100 µM in the assay with IGROV1 ovarian; greater than 100 µM in the assay with MCF7 breast. The TGI with MDA-MB-435 was 55.1 µM and 67.4 µM; with NCI-H226 lung, greater than 96.4 µM; in the assay with PC-3 prostate, 98.4 µM and > 100 µM; in the assay on SW-620 colon it was greater than 100 µM. For the same compound, the GI50 with CAKI-1 renal was 3.69 µM and 15.7 µM; in the assay on COLO 205 colon, 14.2 µM and 1.51 µM; with EKVX NSCLC, 26.6 µM; in the assay with MCF7 breast, 2.53 µM and 16.8 µM; in the assay on MDA-MB-435, 12.3 µM and 8.31 µM; in the assay on NCI-H226 lung, 22.5 µM and 25.5 µM. Moreover, the GI50 in the assay with PC-3 prostate is 12 µM and 19 µM; in the assay on SW-620 colon, 0.76 µM and 1.7 µM.
